# Values of other authors in patent US11603570B2, “Methods for the detection and treatment of leukemias that are responsive to DOT1L inhibition” (MEMORIAL SLOAN KETTERING CANCER CENTER, priority 2013, dated 2023).
# Where two headings read alike, the source gives them in different places.
# Key:
# [1] = tested on: MLL-translocated leukemia cells; settings: infusion, including continuous infusion; cited from earlier work
# [2] = mice or rats, at a dose efficacious against MLL-translocated leukemia cells; cited from earlier work
# [3] = rats; cited from earlier work
# [4] = cited from earlier work
# other methyltransferases = settings: in words; FIG. 1B; cited from earlier work
# [5] = dogs; cited from earlier work
# [6] = tested on: MLL-rearranged leukemia xenograft; settings: cited from earlier work
compound,measurement,setting,value
"CC(C)N(C[C@H]1O[C@@H](n2cnc3c(N)ncnc32)[C@H](O)[C@@H]1O)C1CC(CCc2nc3cc(C(C)(C)C)ccc3[nH]2)C1 (stereo partly drawn) [EPZ005676, (2R,3R,4S,5R)-2-(6-amino-9H-purin-9-yl)-5-((((1r,3S)-3-(2-(5-(tert-butyl)-1H-benzo[d]imidazol-2-yl)ethyl)cyclobutyl)(isopropyl)amino)methyl)tetrahydrofuran-3,4-diol]",growth of MLL-translocated leukemia cells in mice,[1],suppresses the growth
same,hematopoietic toxicity,[2],did not show hematopoietic toxicity
same,effective pharmacokinetic half-life in systemic circulation,[3],15 min
same,solubility in aqueous solution,[4],soluble
same,specificity for DOT1L / H3K79me as compared to other methyl transferases,other methyltransferases,highly selective
same,effective pharmacokinetic half-life in systemic circulation,[5],90 min
same,tumor response at the highest dose,"[6]; continuous intravenous infusion for 21 days, highest dose",complete tumor regressions
same,anti-tumor activity,[6]; continuous intravenous infusion for 21 days,dose-dependent anti-tumor activity
same,no regrowth after the cessation of treatment,[6]; highest dose,up to 32 days
